# Experimental data: PubChem BioAssay AID192 (DTP/NCI, 2004)
# Values joined by “and” are separate entries in the source; they are usually repeats but may differ in a detail not shown here. Equal values may be shown once. Inconclusive results and toxic doses are left out.
# Tested on: BDF1 mice, B16 melanoma ip, median survival T/C
# Experiment: NCI In Vivo Anticancer Drug Screen. Data for tumor model B16 Melanoma (intraperitoneal) in B6D2F1 (BDF1) mice
# Details: endpoint: median survival time, higher = longer survival
# Summary of the method: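 Compounds were tested in mice carrying transplantable tumors. Survival or tumor size was recorded, and each value is the treated-group measurement (T) divided by that of the vehicle-treated control group (C).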
# [1] = dose: 12.5 mg/kg/injection, schedule: Q01DX009 (ip), vehicle: saline with Tween-80
# [2] = dose: 25.0 mg/kg/injection, schedule: Q01DX009 (ip), vehicle: saline with Tween-80
# [3] = dose: 50.0 mg/kg/injection, schedule: Q01DX009 (ip), vehicle: saline with Tween-80
# [4] = dose: 100.0 mg/kg/injection, schedule: Q01DX009 (ip), vehicle: saline with Tween-80
# [5] = dose: 200.0 mg/kg/injection, schedule: Q01DX009 (ip), vehicle: saline with Tween-80
# [6] = dose: 6.25 mg/kg/injection, schedule: Q01DX009 (ip), vehicle: Klucel (hydroxypropylcellulose) (HPC)
# [7] = dose: 6.25 mg/kg/injection, schedule: Q01DX009 (ip), vehicle: saline with Tween-80
# [8] = dose: 12.5 mg/kg/injection, schedule: Q01DX009 (ip), vehicle: Klucel (hydroxypropylcellulose) (HPC)
# [9] = dose: 25.0 mg/kg/injection, schedule: Q01DX009 (ip), vehicle: saline
# [10] = dose: 50.0 mg/kg/injection, schedule: Q01DX009 (ip), vehicle: saline
# [11] = dose: 100.0 mg/kg/injection, schedule: Q01DX009 (ip), vehicle: saline
# [12] = dose: 100.0 mg/kg/injection, schedule: Q04DX003 (ip), vehicle: Klucel (hydroxypropylcellulose) (HPC)
# [13] = dose: 200.0 mg/kg/injection, schedule: Q04DX003 (ip), vehicle: Klucel (hydroxypropylcellulose) (HPC)
# [14] = dose: 400.0 mg/kg/injection, schedule: Q04DX003 (ip), vehicle: Klucel (hydroxypropylcellulose) (HPC)
# [15] = dose: 25.0 mg/kg/injection, schedule: Q01DX009 (ip), vehicle: Klucel (hydroxypropylcellulose) (HPC)
# [16] = dose: 50.0 mg/kg/injection, schedule: Q01DX009 (ip), vehicle: Klucel (hydroxypropylcellulose) (HPC)
# [17] = dose: 100.0 mg/kg/injection, schedule: Q01DX009 (ip), vehicle: Klucel (hydroxypropylcellulose) (HPC)
# [18] = dose: 200.0 mg/kg/injection, schedule: Q01DX009 (ip), vehicle: Klucel (hydroxypropylcellulose) (HPC)
# [19] = dose: 400.0 mg/kg/injection, schedule: Q01DX009 (ip), vehicle: Klucel (hydroxypropylcellulose) (HPC)
structure (smiles),measurement,setting,value
C1CC[N-]CC1.C1CC[N-]CC1.C1CC[N-]CC1.[Cl][Rh]([Cl])[Cl],T/C,"dose: 2.0 mg/kg/injection, schedule: Q01DX009 (ip), vehicle: saline",93 % of control
same,T/C,"dose: 4.0 mg/kg/injection, schedule: Q01DX009 (ip), vehicle: saline",99 % of control
same,T/C,"dose: 6.25 mg/kg/injection, schedule: Q01DX009 (ip), vehicle: saline",109 % of control
same,T/C,"dose: 6.25 mg/kg/injection, schedule: Q01DX009 (ip), vehicle: suspension in saline",103 % of control
same,T/C,"dose: 8.0 mg/kg/injection, schedule: Q01DX009 (ip), vehicle: saline",103 % of control
same,T/C,[1],98 % of control
same,T/C,"dose: 12.5 mg/kg/injection, schedule: Q01DX009 (ip), vehicle: suspension in saline",103 % of control
same,T/C,"dose: 16.0 mg/kg/injection, schedule: Q01DX009 (ip), vehicle: saline",104 % of control
same,T/C,[2],87 % of control
same,T/C,"dose: 25.0 mg/kg/injection, schedule: Q01DX009 (ip), vehicle: suspension in saline",110 % of control
same,T/C,"dose: 32.0 mg/kg/injection, schedule: Q01DX009 (ip), vehicle: saline",121 % of control
same,T/C,[3],93 % of control
same,T/C,"dose: 50.0 mg/kg/injection, schedule: Q01DX009 (ip), vehicle: suspension in saline",110 % of control
same,T/C,[4],94 % of control
same,T/C,"dose: 100.0 mg/kg/injection, schedule: Q01DX009 (ip), vehicle: suspension in saline",115 % of control
same,T/C,[5],100 % of control
same,T/C,"dose: 200.0 mg/kg/injection, schedule: Q01DX009 (ip), vehicle: suspension in saline",112 % of control
Cc1ccc(S(=O)(=O)N/N=C/C(=O)O)cc1,T/C,"dose: 0.78 mg/kg/injection, schedule: Q01DX009 (ip), vehicle: saline with Tween-80",108 % of control
same,T/C,"dose: 1.56 mg/kg/injection, schedule: Q01DX009 (ip), vehicle: saline with Tween-80",110 % of control
same,T/C,"dose: 3.12 mg/kg/injection, schedule: Q01DX009 (ip), vehicle: saline with Tween-80",104 % of control
same,T/C,[6],103 % of control and 111 % of control
same,T/C,[7],104 % of control and 112 % of control
same,T/C,[8],121 % of control
same,T/C,[1],111 % of control
same,T/C,"dose: 15.0 mg/kg/injection, schedule: Q01DX009 (ip), vehicle: saline with Tween-80",112 % of control
same,T/C,"dose: 17.5 mg/kg/injection, schedule: Q01DX009 (ip), vehicle: Klucel (hydroxypropylcellulose) (HPC)",118 % of control
same,T/C,"dose: 23.0 mg/kg/injection, schedule: Q01DX009 (ip), vehicle: saline with Tween-80",103 % of control
same,T/C,"dose: 53.0 mg/kg/injection, schedule: Q01DX009 (ip), vehicle: saline with Tween-80",100 % of control
same,T/C,"dose: 70.0 mg/kg/injection, schedule: Q01DX009 (ip), vehicle: Klucel (hydroxypropylcellulose) (HPC)",151 % of control
same,T/C,"dose: 70.0 mg/kg/injection, schedule: Q01DX009 (ip), vehicle: saline with Tween-80",115 % of control
CCCCNCCN(CC)CC,T/C,[9],100 % of control
same,T/C,[10],100 % of control
same,T/C,[11],98 % of control
[CH3][Pb]([CH3])([CH3])[Cl],T/C,"dose: 0.75 mg/kg/injection, schedule: Q01DX009 (ip), vehicle: saline",117 % of control
same,T/C,"dose: 1.5 mg/kg/injection, schedule: Q01DX009 (ip), vehicle: saline",103 % of control
CC1CC(=O)c2ccccc2N1S(C)(=O)=O (stereo not drawn),T/C,[12],102 % of control
same,T/C,[13],100 % of control
same,T/C,[14],95 % of control
O=[N+]([O-])c1cc([As](=O)(O)O)ccc1Cl,T/C,[15],100 % of control
same,T/C,[16],96 % of control
same,T/C,[17],96 % of control
Cc1ccc(N2CSC(=S)N(c3ccc(C)cc3)C2)cc1,T/C,[17],86 % of control and 109 % of control
same,T/C,[18],86 % of control and 109 % of control
same,T/C,[19],102 % of control
Cc1ccc2c(c1)CN(Cc1ccccc1)CO2,T/C,[17],93 % of control
same,T/C,[18],96 % of control
same,T/C,[19],96 % of control
Cc1cc2[nH]c(=O)[nH]c2cc1C,T/C,[3],97 % of control
same,T/C,[4],90 % of control
C=CCOc1ccccc1Cl,T/C,"dose: 50.0 mg/kg/injection, schedule: Q04DX003 (ip), vehicle: Klucel (hydroxypropylcellulose) (HPC)",122 % of control
same,T/C,[17],100 % of control
same,T/C,[18],107 % of control
same,T/C,[13],119 % of control
same,T/C,[19],97 % of control
N#[N+]c1c(O)cc(S(=O)(=O)O)c2ccccc12,T/C,"dose: 100.0 mg/kg/injection, schedule: Q04DX003 (ip), vehicle: saline",95 % of control
same,T/C,"dose: 200.0 mg/kg/injection, schedule: Q04DX003 (ip), vehicle: saline",93 % of control
same,T/C,"dose: 400.0 mg/kg/injection, schedule: Q04DX003 (ip), vehicle: saline",90 % of control
OC(CC1(O)C(F)(F)C(F)(F)C1(F)F)c1ccccc1 (stereo not drawn),T/C,[3],107 % of control
same,T/C,[4],110 % of control
same,T/C,[5],94 % of control
CC(C)CC(NC(=O)OCc1ccccc1)C(=O)NC(Cc1c[nH]c2ccccc12)C(=O)O (stereo not drawn),T/C,[3],90 % of control
same,T/C,[4],96 % of control
same,T/C,[5],96 % of control
same,T/C,"dose: 400.0 mg/kg/injection, schedule: Q01DX009 (ip), vehicle: saline with Tween-80",98 % of control
COc1ccc2c(c1)CCC1=C2CCC2(C)C(=O)OC(=O)C12 (stereo not drawn),T/C,[17],103 % of control
same,T/C,[18],96 % of control
same,T/C,[19],100 % of control
O=C(O)CSc1nc(-c2ccccc2)c(-c2ccccc2)n1-c1ccccn1,T/C,"dose: 12.5 mg/kg/injection, schedule: Q01DX009 (ip), vehicle: water",98 % of control
same,T/C,"dose: 25.0 mg/kg/injection, schedule: Q01DX009 (ip), vehicle: water",97 % of control
same,T/C,"dose: 50.0 mg/kg/injection, schedule: Q01DX009 (ip), vehicle: water",98 % of control
same,T/C,"dose: 100.0 mg/kg/injection, schedule: Q01DX009 (ip), vehicle: water",98 % of control
CC(=O)CC(=O)N1CCCCC1C (stereo not drawn),T/C,[17],109 % of control
same,T/C,[18],112 % of control
same,T/C,[19],110 % of control
COc1ccc2c(c1)C13CCCCC1C(C2)N(CC1(c2ccccc2)CC1)CC3 (stereo not drawn),T/C,"dose: 4.1 mg/kg/injection, schedule: Q01DX009 (ip), vehicle: Klucel (hydroxypropylcellulose) (HPC)",93 % of control
same,T/C,[6],93 % of control
same,T/C,"dose: 9.3 mg/kg/injection, schedule: Q01DX009 (ip), vehicle: Klucel (hydroxypropylcellulose) (HPC)",93 % of control and 109 % of control
same,T/C,[8],119 % of control
same,T/C,[15],121 % of control
same,T/C,[16],97 % of control
O=C(COc1ccc(Cl)cc1)Nc1ccccc1C(F)(F)F,T/C,[12],90 % of control
same,T/C,[13],92 % of control
same,T/C,[14],90 % of control
S=C=NCCc1ccccc1,T/C,[1],111 % of control
same,T/C,[2],114 % of control
same,T/C,[3],96 % of control
O=C(NO)N/N=C/c1ccc(/C=N/NC(=O)NO)cc1,T/C,"dose: 100.0 mg/kg/injection, schedule: Q04DX003 (ip), vehicle: saline with Tween-80",100 % of control
same,T/C,"dose: 200.0 mg/kg/injection, schedule: Q04DX003 (ip), vehicle: saline with Tween-80",102 % of control
same,T/C,"dose: 400.0 mg/kg/injection, schedule: Q04DX003 (ip), vehicle: saline with Tween-80",90 % of control
C/C=C/C=C\C1OC(O)([C@H](CC)C(=O)NC/C=C/C=C(\C)[C@H](OC)C(C)C2OC(\C=C/C=C/C=C(\C)C(=O)c3c(O)ccn(C)c3=O)[C@H](O)[C@@H]2O)C(O)C(O)C1(C)C (stereo partly drawn),T/C,[9],102 % of control
same,T/C,[10],89 % of control
same,T/C,[11],91 % of control
same,T/C,"dose: 200.0 mg/kg/injection, schedule: Q01DX009 (ip), vehicle: saline",97 % of control
O=C(O)c1ccc2c([N+](=O)[O-])cccc2n1,T/C,[16],112 % of control
same,T/C,[17],112 % of control
O=S(=O)(O)C1CCC[N-]C1.O=S(=O)(O)C1CCC[N-]C1.[Cl][Pt+2]([Cl])([Cl])[Cl] (stereo not drawn),T/C,[7],110 % of control
same,T/C,[1],95 % of control
same,T/C,[2],103 % of control
same,T/C,[3],106 % of control
same,T/C,[4],105 % of control
O=C(NC(=O)C(Cl)Cl)OC1c2cc(Cl)ccc2-c2c(Cl)cc(Cl)cc21 (stereo not drawn),T/C,"dose: 3.0 mg/kg/injection, schedule: Q01DX009 (ip), vehicle: saline with Tween-80",93 % of control
same,T/C,"dose: 6.0 mg/kg/injection, schedule: Q01DX009 (ip), vehicle: saline with Tween-80",97 % of control
same,T/C,"dose: 12.0 mg/kg/injection, schedule: Q01DX009 (ip), vehicle: saline with Tween-80",86 % of control
